Assays:
[1] = Designed experiment: percentage of separation of aqueous mixtures of pesticide, adjuvant and hydrotrope (FIG. 2 ternary diagram); format: physicochemical; conditions: pesticide formulation containing AGAR 7053 as adjuvant
Description: The performance of the sodium monobutyl sulfosuccinate as hydrotrope for pesticide formulation containing the AGAR 7053 as adjuvant was also confirmed by the results of a designed experiment.
The numbers associated with the small colored bar in the upper left hand corner of the Figure give the percentage of separation in the samples. The colors in the bar are related to the colored regions in the ternary diagram. As the regions in the graph go from red to blue the percentage of separation goes to zero.

[2] = Stability and uniformity of high-load glufosinate-ammonium formulation (FIG. 1); format: physicochemical; conditions: 1:1 mixture glufosinate-ammonium active and ACAR 7053 (C8 ether sulfate adjuvant), hydrotrope present, FIG. 1C
Description: The unique structure of the monoalkyl sulfosuccinates of structure (I) renders them the capability of compatibilizing or stabilizing the highly concentrated components in the pesticide/herbicide formulation. Such capability is best illustrated by the performance of monoalkylsulfosuccinates, particularly of sodium monobutyl sulfosuccinate in the high load glufosinate-ammonium formulations. In these formulations, the active loading is at the highest (280 g/l). As the active content increases, the adjuvant content increases and the water content is reduced. Consequently, there is not enough water to solubilize both the herbicide active and the adjuvant. Without the action of a hydrotrope, the two components would separate.
Without hydrotrope, the formulation is a hazy mixture when freshly mixed (FIG. 1A) that separates into two layers upon standing (FIG. 1B).

In the case of `CCCCOC(=O)C(CC(=O)[O-])S(=O)(=O)O.[Na+]` (stereo not drawn) [sodium monobutyl sulfosuccinate], the “performance as hydrotrope (separation of samples)” value [1] is reported as “performed as a hydrotrope over a wide range of concentrations”, the “appearance of formulation when freshly mixed” value [2] is reported as “clear” and the “stability of formulation after prolonged standing” value [2] is reported as “retains that clarity and uniformity”.

— patent US9307757B2, “Monoalkyl sulfosuccinates in pesticide formulations and applications” (AKZO NOBEL CHEMICALS INTERNATIONAL B.V., priority 2009, dated 2016)
